Measurements taken from PMC5522996, “Big conductance calcium‐activated potassium channel openers control spasticity without sedation” (British Journal of Pharmacology, 2017).
Entries after “also recorded” stand apart in the source; their conditions may differ.

Assays:
EDG7 = molecular target: T1, EDG7 (Homo sapiens, UniProt Q9UBY5); test: Receptor binding profile of VSN16R; conditions: 10µM VSN16R
T1 construct: purchased Cerep; Chantest; DiscoveRx; Multispan; MDS Pharma Services

rabbits = test: Reproductive toxicology in rabbits; format: in vivo, rabbit
Protocol: Twenty‐eight day toxicology in rats and dogs for Investigational New Drug filing was performed by Charles Rivers (UK). Reproductive toxicology in rabbits was performed by Charles Rivers (Canada). Pharmacokinetic and/or toxicological doses ranged from 5 to 1000 mg·kg^−1 p.o. in Sprague Dawley male and female rats (n = 6‐26 per group), 50–200 mg·kg^−1 p.o. in male and female Beagle dogs (n = 6 per group) and 100–750 mg·kg^−1 p.o. in female New Zealand white rabbits (n = 9 per group). Results are expressed as mean ± SD.

H1 = molecular target: T2, H1 (Homo sapiens, UniProt P35367); test: Receptor binding profile of VSN16R; conditions: 10µM VSN16R
T2 construct: purchased Cerep; Chantest; DiscoveRx; Multispan; MDS Pharma Services
T2 sequence (P35367 whole entry): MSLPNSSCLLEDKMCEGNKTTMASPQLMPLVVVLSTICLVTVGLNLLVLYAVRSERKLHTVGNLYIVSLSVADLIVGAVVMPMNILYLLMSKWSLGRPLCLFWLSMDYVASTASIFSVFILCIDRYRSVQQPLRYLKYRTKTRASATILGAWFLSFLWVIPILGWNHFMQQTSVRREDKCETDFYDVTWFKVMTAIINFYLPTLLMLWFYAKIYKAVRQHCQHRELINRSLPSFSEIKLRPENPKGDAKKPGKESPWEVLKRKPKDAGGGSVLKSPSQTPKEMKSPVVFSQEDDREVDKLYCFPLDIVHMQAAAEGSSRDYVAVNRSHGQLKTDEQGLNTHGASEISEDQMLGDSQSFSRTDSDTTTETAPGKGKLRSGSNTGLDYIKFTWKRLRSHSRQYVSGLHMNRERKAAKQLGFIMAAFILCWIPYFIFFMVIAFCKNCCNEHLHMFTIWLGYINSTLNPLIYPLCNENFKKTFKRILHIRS

VIP1 = molecular target: T3, VIP1 (Homo sapiens, UniProt P32241); test: Receptor binding profile of VSN16R; conditions: 10µM VSN16R
T3 construct: purchased Cerep; Chantest; DiscoveRx; Multispan; MDS Pharma Services
T3 sequence (P32241 31-457): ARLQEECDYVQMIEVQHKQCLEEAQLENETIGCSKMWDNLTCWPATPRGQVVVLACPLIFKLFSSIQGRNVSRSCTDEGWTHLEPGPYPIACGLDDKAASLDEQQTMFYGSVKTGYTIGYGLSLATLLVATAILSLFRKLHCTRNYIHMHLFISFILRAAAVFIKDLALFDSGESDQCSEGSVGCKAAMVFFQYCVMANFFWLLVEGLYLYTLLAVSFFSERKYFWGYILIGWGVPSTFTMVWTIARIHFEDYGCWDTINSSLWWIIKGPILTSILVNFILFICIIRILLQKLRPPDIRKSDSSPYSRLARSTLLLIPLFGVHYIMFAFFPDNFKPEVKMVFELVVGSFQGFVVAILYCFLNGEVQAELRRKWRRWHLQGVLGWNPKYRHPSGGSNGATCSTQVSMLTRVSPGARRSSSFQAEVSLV

CYP450 2B6 = CYP450 2B6 (Homo sapiens, UniProt P20813)
Chain of CYP450 2B6 (P20813 whole entry): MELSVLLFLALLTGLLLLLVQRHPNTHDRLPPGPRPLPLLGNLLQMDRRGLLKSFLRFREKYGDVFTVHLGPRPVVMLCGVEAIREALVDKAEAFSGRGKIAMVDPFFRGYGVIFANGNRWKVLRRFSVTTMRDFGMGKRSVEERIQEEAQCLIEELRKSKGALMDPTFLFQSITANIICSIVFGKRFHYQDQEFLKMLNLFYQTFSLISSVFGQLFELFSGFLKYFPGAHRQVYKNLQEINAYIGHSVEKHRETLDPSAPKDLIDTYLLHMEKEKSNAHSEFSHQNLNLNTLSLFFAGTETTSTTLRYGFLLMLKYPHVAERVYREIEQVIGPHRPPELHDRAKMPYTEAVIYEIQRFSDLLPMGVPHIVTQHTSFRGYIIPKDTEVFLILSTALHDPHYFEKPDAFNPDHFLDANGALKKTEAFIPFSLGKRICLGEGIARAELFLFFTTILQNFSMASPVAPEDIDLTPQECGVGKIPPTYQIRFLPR
Source text: (§5) Inhibition of binding of either 3-cyano-7-ethoxycoumarin, dibenzylfluorescein or 7-benzyoxy-4-
(§6) (trifluoromethyl) coumarin in human enzyme transfected BTI NN-5B1-4 cells or Sf9 insect cells or
(§7) inhibition of dextromethorphan substrate to CYP450 2D6 in liver microsomes.

MC4 = molecular target: T4, MC4 (Homo sapiens, UniProt P32245); test: Receptor binding profile of VSN16R; conditions: 10µM VSN16R
T4 construct: purchased Cerep; Chantest; DiscoveRx; Multispan; MDS Pharma Services
T4 sequence (P32245 whole entry): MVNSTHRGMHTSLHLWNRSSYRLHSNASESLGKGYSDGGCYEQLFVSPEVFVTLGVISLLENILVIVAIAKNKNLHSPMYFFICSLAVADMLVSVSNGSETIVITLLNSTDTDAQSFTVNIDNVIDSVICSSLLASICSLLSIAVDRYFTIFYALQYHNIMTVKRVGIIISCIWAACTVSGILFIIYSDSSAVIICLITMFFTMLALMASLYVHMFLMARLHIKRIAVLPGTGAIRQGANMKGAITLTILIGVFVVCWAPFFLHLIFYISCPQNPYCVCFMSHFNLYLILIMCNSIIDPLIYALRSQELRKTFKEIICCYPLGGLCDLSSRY

[1] = Plasma, brain and spinal cord levels in ABH mice with spastic EAE; format: in vivo, mouse
Protocol: The stability of compounds when subjected to hepatic and plasma degradation was assessed in vitro by Inpharmatica, Cambridge, UK. Compounds (1 μM) were incubated with either pooled mouse liver microsomes (0.1 mg protein mL^−1) or pooled mouse plasma at 37°C for 0, 5, 10, 20 and 40 min before termination with acetonitrile containing warfarin as an analytical internal standard. Samples were centrifuged, and the resultant supernatant analysed for parent compound. The mass responses at baseline were taken as the 100% reference values against which the disappearance of the compound was measured. The natural log of the % remaining values was used to generate linear plots of disappearance of the compounds. Half‐life values were calculated from the slope of these plots. Hepatocyte metabolism was assessed by Cyprotex, Macclesfield, and 10 μM VSN16R was incubated with primary mouse, rat, monkey (Macaque) and human hepatocytes for 1 h, and the presence of metabolites was assessed using liquid […] mass spectroscopy. The stability of VSN16R was assessed in vivo by Inpharmatica, Cyprotex and Charles Rivers, Cambridge. Blood (plasma) samples were obtained prior to and 5 min to 24 h after drug administration of 2–5 mg·kg^−1 i.v. or 5 mg·kg^−1 p.o. VSN16R into outbred mice and rats (n = 3 per time point). In addition, plasma, brain and spinal cord samples were obtained from ABH with spastic EAE. Immediately after blood collection, the brain and spinal cord were removed and then stored at −20°C prior to assay. Tissue samples were weighed, homogenized and centrifuged, and the lysates generated. Brain lysates and plasma were assayed by LC–MS methods by Inpharmatica/Charles Rivers, Cambridge, UK. This was also performed using a Waters Xevo TQ or API4000, AB Sciex mass spectrometer using spiked samples as standards. PK Solutions Software (Summit Research Services, Montrose, CO, USA), AB Sciex Analyst software combined with Thermo Fisher Scientific Watson LIMS processing and reporting software or WinNonLin pharmacokinetic or PK solutions 2.0 software (Summit Research Services, Montrose CO, USA) were used to produce PK parameters. Data are expressed as mean ± SEM. The detection limit of VSN16R was 2 ng·mL^−1 in plasma and brain and 14 ng·mL^−1 in spinal cords. The detection limit of VSN22R was 2 ng·mL^−1 in plasma and 0.1 ng·mL^−1 for VSN44R in plasma. Pharmacokinetics in toxicological samples in rats (n = 6 per group), dogs (n = 6 per group) and humans (n = 6 per group) were performed by Charles Rivers (Edinburgh, UK).

CYP450 2C8 = molecular target: T5, CYP450 2C8 (Homo sapiens, UniProt P10632); test: CYP450 inhibition of substrate binding; format: in vitro ADME; conditions: read-out: IC50 Inhibition of substrate binding, VSN16R
T5 construct: host or cells: BTI NN-5B1-4 or Sf9 insect cells
T5 sequence (P10632 whole entry): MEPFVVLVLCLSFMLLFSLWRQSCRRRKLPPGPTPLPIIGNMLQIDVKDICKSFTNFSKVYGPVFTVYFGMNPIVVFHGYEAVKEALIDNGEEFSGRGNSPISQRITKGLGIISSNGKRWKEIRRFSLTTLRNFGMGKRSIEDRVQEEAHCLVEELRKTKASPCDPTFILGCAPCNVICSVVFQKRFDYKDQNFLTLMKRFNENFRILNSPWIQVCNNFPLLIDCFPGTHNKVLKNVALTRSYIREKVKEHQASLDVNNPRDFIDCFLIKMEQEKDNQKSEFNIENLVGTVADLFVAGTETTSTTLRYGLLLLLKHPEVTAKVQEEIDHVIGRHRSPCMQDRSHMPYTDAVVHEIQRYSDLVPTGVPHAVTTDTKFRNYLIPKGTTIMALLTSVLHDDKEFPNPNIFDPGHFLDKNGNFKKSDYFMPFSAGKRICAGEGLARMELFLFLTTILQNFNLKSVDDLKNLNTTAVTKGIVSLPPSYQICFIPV
Source text: as §5, §6, §7

CYP450 2C9 = molecular target: T6, CYP450 2C9 (Homo sapiens, UniProt P11712); test: CYP450 inhibition of substrate binding; format: in vitro ADME; conditions: read-out: IC50 Inhibition of substrate binding, VSN16R
T6 construct: host or cells: BTI NN-5B1-4 or Sf9 insect cells
T6 sequence (P11712 whole entry): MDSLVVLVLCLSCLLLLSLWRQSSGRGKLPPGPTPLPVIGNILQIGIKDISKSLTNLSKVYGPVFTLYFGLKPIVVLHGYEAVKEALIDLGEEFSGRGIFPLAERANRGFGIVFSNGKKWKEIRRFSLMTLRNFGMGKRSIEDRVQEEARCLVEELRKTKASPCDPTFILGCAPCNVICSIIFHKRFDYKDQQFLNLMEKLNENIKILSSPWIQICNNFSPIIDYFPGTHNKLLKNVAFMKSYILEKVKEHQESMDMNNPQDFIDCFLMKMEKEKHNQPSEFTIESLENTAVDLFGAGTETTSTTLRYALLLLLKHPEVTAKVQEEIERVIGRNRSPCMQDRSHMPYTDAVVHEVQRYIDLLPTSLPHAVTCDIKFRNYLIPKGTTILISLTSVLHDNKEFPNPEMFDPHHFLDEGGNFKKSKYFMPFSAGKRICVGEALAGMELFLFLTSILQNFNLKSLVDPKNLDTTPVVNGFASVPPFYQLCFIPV
Source text: as §5, §6, §7

TA100 = test: Bacterial reverse mutation, revertants per plate; format: cell-based, Salmonella typhimurium
Protocol: (§1) Strain of Organism Treatment Dose Revertants per plate
(§2) First Mutation without Metabolic Stimulation
(§3) Second Mutation without Metabolic Stimulation
(§4) VSN16R was incubated at various concentrations with either TA1535, TA1537, TA98 and TA100 strains of Salmonella typhimurium, which carry mutations in genes involved in histidine synthesis, and WP2uvvA Escherichia coli. The bacteria are spread on agar plates with limiting histidine content and incubated for 48 h. The number of histidine gene negative to positive revertants was assessed in two experiments. The results represent the mean ± SD. n=3/group. This was performed by Charles

TA98 = test: Bacterial reverse mutation, revertants per plate; format: cell-based, Salmonella typhimurium
Protocol: as §1, §2, §3, §4

TA1535 = test: Bacterial reverse mutation, revertants per plate; format: cell-based, Salmonella typhimurium
Protocol: as §1, §2, §3, §4

TA1537 = test: Bacterial reverse mutation, revertants per plate; format: cell-based, Salmonella typhimurium
Protocol: as §1, §2, §3, §4

Na+-Ca2+ exchanger = test: Receptor binding profile of VSN16R; design: species or system human; conditions: 10µM VSN16R
5-HT6 = molecular target: T7, 5-HT6 (Homo sapiens, UniProt P50406); test: Receptor binding profile of VSN16R; conditions: 10µM VSN16R
T7 construct: purchased Cerep; Chantest; DiscoveRx; Multispan; MDS Pharma Services
T7 sequence (P50406 whole entry): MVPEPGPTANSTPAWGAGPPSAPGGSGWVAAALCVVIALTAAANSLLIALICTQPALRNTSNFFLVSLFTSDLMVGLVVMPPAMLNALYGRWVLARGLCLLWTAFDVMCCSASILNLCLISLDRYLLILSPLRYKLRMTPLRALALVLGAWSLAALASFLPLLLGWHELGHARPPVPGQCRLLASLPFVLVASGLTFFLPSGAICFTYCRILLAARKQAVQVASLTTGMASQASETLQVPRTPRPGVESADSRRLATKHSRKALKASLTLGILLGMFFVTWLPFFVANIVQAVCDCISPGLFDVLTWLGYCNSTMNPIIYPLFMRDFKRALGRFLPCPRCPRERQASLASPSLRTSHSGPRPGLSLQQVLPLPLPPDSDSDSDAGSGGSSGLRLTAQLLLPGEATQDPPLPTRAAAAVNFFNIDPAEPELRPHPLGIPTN

α2(non-selective) = test: Receptor binding profile of VSN16R; design: species or system human; conditions: 10µM VSN16R
mouse vas deferens = test: βγ‐methylene ATP‐induced contraction of electrically unstimulated vas deferens; format: cell-based; conditions: 100 nM, 30 min before βγ‐methylene ATP
CB2 = molecular target: T8, CB2 (Homo sapiens, UniProt P34972); test: Receptor binding profile of VSN16R
T8 construct: purchased Cerep; Chantest; DiscoveRx; Multispan; MDS Pharma Services
T8 sequence (P34972 whole entry): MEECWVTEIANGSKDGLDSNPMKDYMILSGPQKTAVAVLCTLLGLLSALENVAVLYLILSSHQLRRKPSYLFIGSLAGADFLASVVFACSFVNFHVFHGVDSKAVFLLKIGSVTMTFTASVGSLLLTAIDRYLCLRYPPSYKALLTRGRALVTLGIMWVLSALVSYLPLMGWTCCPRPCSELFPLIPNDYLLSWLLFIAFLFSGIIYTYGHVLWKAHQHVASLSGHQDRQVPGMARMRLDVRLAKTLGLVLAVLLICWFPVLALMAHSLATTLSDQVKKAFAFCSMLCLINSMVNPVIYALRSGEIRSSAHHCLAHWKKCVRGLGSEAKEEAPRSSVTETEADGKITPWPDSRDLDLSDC

[2] = First Mutation without Metabolic Stimulation, 17µg
[3] = First Mutation without Metabolic Stimulation, 5000µg
[4] = Second Mutation without Metabolic Stimulation, 17µg
[5] = Second Mutation without Metabolic Stimulation, 5000µg

T1 sequence (Q9UBY5 whole entry): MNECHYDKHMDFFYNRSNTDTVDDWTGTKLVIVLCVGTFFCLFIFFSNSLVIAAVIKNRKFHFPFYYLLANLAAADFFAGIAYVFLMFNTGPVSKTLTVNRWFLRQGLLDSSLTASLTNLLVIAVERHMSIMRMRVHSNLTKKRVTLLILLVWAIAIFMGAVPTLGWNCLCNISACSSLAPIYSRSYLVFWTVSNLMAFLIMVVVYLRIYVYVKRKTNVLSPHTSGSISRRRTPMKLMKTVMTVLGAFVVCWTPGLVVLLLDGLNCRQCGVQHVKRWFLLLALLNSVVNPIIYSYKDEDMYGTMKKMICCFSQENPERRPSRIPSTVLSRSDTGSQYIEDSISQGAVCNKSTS

C[C@H](CO)NC(=O)c1cccc(/C=C\CCCC(=O)N(C)C)c1 [VSN16R]
Activity (EDG7): Negligible Activity
Reproductive toxicology safe level (rabbits): > 500 mg·kg^−1
Activity (H1): Negligible Activity
Activity (VIP1): Negligible Activity
IC50 (CYP450 2B6): > 10 µM
Activity (MC4): Negligible Activity
Plasma level of the named species ([1]; after 5 mg·kg^−1 p.o. VSN16R, ABH mice with spastic EAE): 73.0 ± 6.1 ng/mL
Mice with drug detected in brains ([1]; chronic EAE animals): 4/4
Mice with drug detected in spinal cords ([1]; chronic EAE animals): 2/4
Mice with drug detected in brains ([1]; normal animals): 4/4
Mice with drug detected in spinal cords ([1]; normal animals): 0/4
IC50 (CYP450 2C8): > 10 µM
IC50 (CYP450 2C9): > 10 µM
Revertants per plate (TA100; [2]): 79.3 ± 7.6
Revertants per plate (TA100; [3]): 79.3 ± 5.5
Revertants per plate (TA100; [4]): 85.7 ± 6.7
Revertants per plate (TA100; [5]): 99.3 ± 5.5
Revertants per plate (TA98; [2]): 15.3 ± 4.7
Revertants per plate (TA98; [3]): 18.3 ± 7.1
Revertants per plate (TA98; [4]): 23.3 ± 1.2
Revertants per plate (TA98; [5]): 23.7 ± 1.2
Revertants per plate (TA1535; [2]): 9.0 ± 6.6
Revertants per plate (TA1535; [3]): 13.7 ± 2.1
Revertants per plate (TA1535; [4]): 14.0 ± 5.6
Revertants per plate (TA1535; [5]): 11.3 ± 3.5
Revertants per plate (TA1537; [2]): 13.3 ± 1.5
Revertants per plate (TA1537; [3]): 7.0 ± 1.7
Revertants per plate (TA1537; [4]): 12.3 ± 2.9
Revertants per plate (TA1537; [5]): 10.3 ± 2.9
Activity (Na+-Ca2+ exchanger): Negligible Activity
Activity (5-HT6): Negligible Activity
Activity (α2(non-selective)): Negligible Activity
Effect on βγ‐methylene ATP‐induced contractions (mouse vas deferens): does not inhibit; also recorded: did not affect
Activity (CB2; 10µM VSN16R): Negligible Activity
Binding to CB2 receptors (CB2; tested to 10 μM): did not bind
